Reference: article PMC6352943, “Novel pyrazolo[3,4-d]pyrimidines: design, synthesis, anticancer activity, dual EGFR/ErbB2 receptor tyrosine kinases inhibitory activity, effects on cell cycle profile and caspase-3-mediated apoptosis” (Journal of Enzyme Inhibition and Medicinal Chemistry, 2019)

Columns and labels:
[1] = test system: OVCAR-4; test: MTT cell viability assay; type: cell-based, human; conditions: Homo sapiens; OVCAR-4 ovarian cancer, MTT, 48 h, mean ± SD of three experiments; read-out: IC50 (concentration required for 50% inhibition of cell viability)
Method: (§1) Cell Line cells were obtained from American Type Culture Collection, cells were cultured using Dulbecco's Modified Eagle's medium (DMEM) (Invitrogen/Life Technologies) supplemented with 10% foetal bovine serum (FBS) (Hyclone), 10 μg/mL of insulin (Sigma), and 1% penicillin-streptomycin. All of the other chemicals and reagents were from Sigma, or Invitrogen. Plate cells (cells density 1.2 – 1.8 × 10,000 cells/well) in a volume of 100 µL complete growth medium and 100 μL of the tested compound per well in a 96-well plate for 24 h before the MTT assay.
(§2) Remove culture medium to a centrifuge tube. […] Add 2.0 to 3.0 ml of Trypsin EDTA solution to flask and observe cells under an inverted microscope until cell layer is dispersed. Add 6 to 8 ml of complete growth medium and aspirate cells by gently pipetting. Transfer the cell suspension to the centrifuge tube with the medium and centrifuge for 5 to 10 min. Discard the supernatant. Resuspend the cell pellet in fresh growth medium. Add appropriate aliquots of the cell suspension to new culture vessels. Incubate cultures at 37 °C for 24 h. After treatment of cells with the serial concentrations of the compound to be tested incubation is carried out for 48 h at 37 °C, then the plates are to be examined under the inverted microscope and proceed for the MTT assay.
(§3) The 3–(4, 5-dimethylthiazol-2-yl)-2,5-diphenyltetrazolium bromide (MTT) method[30] of monitoring in vitro cytotoxicity is well suited for use with multiwell plates. The assessment of cell population growth is based on the capability of living cells to reduce the yellow product MTT to a blue product, formazan, by a reduction reaction occurring in the mitochondria. The five cell lines were incubated for 24 h in 96-microwell plates. The number of living cells in the presence or absence (control) of the various test compounds is directly proportional to the intensity of the blue colour, measured by spectrophotometry using (ROBONIK P2000 Spectrophotometer) at a wavelength of 570 nm. Measure the background absorbance of multiwell plates at 690 nm and subtract from the 570 nm measurement. Five concentrations ranging from 0.01 μM to 100 μM (with semi-log decrease in concentration) were tested for each of the compounds under study. Each experiment was carried out in triplicate. The IC50 values [the concentration required for 50% inhibition of cell viability] were calculated using sigmoidal dose response curve-fitting models.

[2] = test system: ACHN; test: MTT cell viability assay; type: cell-based, human; conditions: Homo sapiens; ACHN renal cancer, MTT, 48 h, mean ± SD of three experiments; read-out: IC50 (concentration required for 50% inhibition of cell viability)
Method: as §1, §2, §3

[3] = test system: NCI-H460; test: MTT cell viability assay; type: cell-based, human; conditions: Homo sapiens; NCI-H460 lung cancer, MTT, 48 h, mean ± SD of three experiments; read-out: IC50 (concentration required for 50% inhibition of cell viability)
Method: as §1, §2, §3

Structure (SMILES)	IC50 [1]	IC50 [2]	IC50 [3]	melting point
C#Cc1cccc(Nc2ncnc3cc(OCCOC)c(OCCOC)cc23)c1 [Erlotinib, reference compound]	2.79 ± 0.41 µM	12.4 ± 1.88 µM	8.36 ± 0.69 µM	–
Cc1nn(-c2ccc(F)cc2)c2ncnc(NN=Cc3ccncc3)c12 [Compound 10d, 1–(4-Fluorophenyl)-3-methyl-4–(2-(pyridin-4-yl-methylidene) hydrazinyl)-1H-pyrazolo[3,4-d]pyrimidine]	–	–	–	262 to 264 °C
